In patent publication US11241417B2, “Compositions and methods for the treatment and prevention of neurological disorders” (Yumanity Therapeutics, Inc., priority 2018, dated 2022):
Entries after “also recorded” stand apart in the source; their conditions may differ.

Key:
Format in all cases: cell-based
[1] = tested on: TDP-43-expressing yeast; assay: Yeast TDP-43 model viability (resazurin-reduction endpoint); conditions: 2-fold serial dilution applied for 24 hours
Description: (§1) (FIG. 1A) Structure of the Erg11 inhibitor and anti-fungal, fluconazole. […] A 2-fold serial dilution of fluconazole was applied to TDP-43-expressing yeast for 24 hours prior to analysis. (FIG. 1C) Wild-type yeast cultures were treated with fluconazole for eight hours prior to HPLC analysis for lanosterol and ergosterol. Data are expressed as the area under the curve (AUC) normalized to cell mass based on optical density of cultures at 600 nm.
The toxic gain of function features of TDP-43 can be faithfully recapitulated in the simple model organism, budding yeast, where the protein also localizes to stress granules. […] The yeast model thus provides a robust cell-based screening platform for small molecules capable of ameliorating toxicity. To validate compounds from such phenotypic screens, it is imperative to test compounds in a mammalian neuronal context. In an effort to develop TDP-43-related mammalian models of neuron loss that occurs in ALS and FTD, primary cultures of rat cortical neurons were transfected with human wild type or Q331K mutant TDP-43. These cells were compared to cells which received an empty expression vector control. […] In the experiments described in this example, this model system is used to interrogate new therapeutic approaches to ameliorate TDP-43 toxicity.
Fluconazole is an antifungal known to inhibit Erg11, the yeast lanosterol 14-alpha demethylase (FIG. 1B). […]

[2] = tested on: Erg11; assay: HPLC analysis for lanosterol and ergosterol in fluconazole-treated wild-type yeast cultures; conditions: wild-type yeast cultures treated for eight hours, normalized to optical density at 600 nm
Description: as §1
Fluconazole is an antifungal known to inhibit Erg11, the yeast lanosterol 14-alpha demethylase (FIG. 1B). […] CYP51A1 has also been known as lanosterol 14-alpha demethylase, which describes its function in removing the 14-alpha-methyl group from lanosterol to generate 4,4-dimethylcholesta-8(9),14,24-trien-3β-ol, which is a critical step in the cholesterol biosynthetic pathway.

[3] = tested on: primary rat cortical neurons transfected with wild-type TDP-43; assay: Survival of primary rat cortical neurons transfected with wild-type TDP-43; conditions: rat primary cortical neurons co-transfected with RFP and wild-type human TDP-43; titration of compound; cox regression
Description: (§2) Rat primary cortical neurons were co-transfected with a red fluorescent protein (RFP) as a morphological marker and either control (empty vector) or wild-type TDP-43 expression plasmids and treated with vehicle (DMSO) or a titration of compound (3). (FIG. 3A) Risk of neuron death plots. The lifetime of each neuron was determined by either loss of RFP signal or morphological indicators of death such as loss of neurites and cell blebbing and used to generate cumulative hazard plots of risk of death over time (hrs) post-transfection. (FIG. 3B) Forest plots. Hazard ratios for each treatment group (relative to TDP-43 DMSO group) were determined by cox regression analysis and used to generate forest plots. […] P, p-value.
Rat primary cortical neurons were co-transfected with a red fluorescent protein (RFP) as a morphological marker and either control (empty vector) or wild type TDP-43 expression plasmids and treated with vehicle (DMSO) or a titration of compound (4). […] The lifetime of each neuron was determined by either loss of RFP signal or morphological indicators of death such as loss of neurites and cell blebbing and used to generate cumulative hazard plots of risk of death over time (hrs) post-transfection. […] Hazard ratios for each treatment group (relative to TDP-43 DMSO group) were determined by cox regression analysis and used to generate forest plots. […]

[4] = tested on: primary rat cortical neurons transfected with Q331K Mutant TDP-43; assay: Survival of primary rat cortical neurons transfected with Q331K mutant TDP-43; conditions: rat primary cortical neurons co-transfected with RFP and Q331K mutant TDP-43; titration of compound; cox regression
Description: as §2, with “Q331K mutant” for “wild-type”, “4A)” for “3A)”, “4B)” for “3B)”
The toxic gain of function features of TDP-43 can be faithfully recapitulated in the simple model organism, budding yeast, where the protein also localizes to stress granules. […] The yeast model thus provides a robust cell-based screening platform for small molecules capable of ameliorating toxicity. To validate compounds from such phenotypic screens, it is imperative to test compounds in a mammalian neuronal context. In an effort to develop TDP-43-related mammalian models of neuron loss that occurs in ALS and FTD, primary cultures of rat cortical neurons were transfected with human wild type or Q331K mutant TDP-43. […]

Row | SMILES | viability of TDP-43-expressing yeast [1] | ergosterol (AUC normalized to cell mass) [2] | lanosterol (AUC normalized to cell mass) [2] | neuron survival (risk of neuron death, hazard ratio relative to TDP-43 DMSO group) [3] | neuron survival (risk of neuron death, hazard ratio relative to TDP-43 DMSO group) [4]
1 | OC(Cn1cncn1)(Cn1cncn1)c1ccc(F)cc1F [Fluconazole] | restored viability; also recorded: rescues viability | reduces ergosterol | increase in the Erg11 substrate, lanosterol |  | 
2 | CCCN(CCc1ccc(Cl)c(Cl)c1)CC(O)c1cccnc1 (stereo not drawn) [compound (3)] |  |  |  | reduction in survival was partially alleviated; also recorded: promotes survival | promotes survival
3 | O=C(N[C@@H](Cc1ccc(F)cc1)C(=O)N1CCC(O)CC1)c1cc2cc(Cl)ccc2[nH]1 [compound (4)] |  |  |  | promotes survival | 
